SMILES strings stand for the structures. Several values for one entry are separate records, joined by “and”; a condition that tells them apart may be missing. Identical values can stand only once.

Series [1] concerns the target MLK1 (Homo sapiens, UniProt P80192). In words: Kinase selectivity profiling. The settings on record: 110-kinase panel. In kind it is biochemical. The text has this: (§1) Compound 28c was profiled against a panel of 110 kinases at the International Centre for Protein Kinase Profiling, Division of Signal Transduction Therapy, University of Dundee. Compound 40f was profiled against a panel of 50 kinases (MRC-PPU Express Screen) also at the International Centre for Protein Kinase Profiling.

For series [2], the target named is HIPK3 (Homo sapiens, UniProt Q9H422). In words: Kinase selectivity profiling. It is filed as biochemical. The conditions noted are these: 110-kinase panel.
Excerpt: as §1

For series [3], the target named is HIPK1 (Homo sapiens, UniProt Q86Z02). In words: Kinase selectivity profiling. In kind it is biochemical. The settings on record: 110-kinase panel.
Excerpt: as §1

In series [4] the target is EPH-B1 (Homo sapiens, UniProt P54762). In words: Kinase selectivity profiling. In kind it is biochemical. The settings on record: 110-kinase panel, read-out: % activity remaining, EPH2B1.
Excerpt: as §1

The target in series [5] is MAPKAP-K2 (Homo sapiens, UniProt P49137). Nature of the series: Kinase selectivity profiling. It is filed as biochemical. The conditions noted are these: 110-kinase panel, read-out: % activity remaining, MAPKAP2K2.
Excerpt: as §1

For series [6], the target named is MKK1 (Homo sapiens, UniProt Q02750). Nature of the series: Kinase selectivity profiling. In kind it is biochemical.
Excerpt: as §1

Series [7] concerns the target MNK1 (Homo sapiens, UniProt Q9BUB5). Nature of the series: Kinase selectivity profiling. The conditions noted are these: 110-kinase panel. It is filed as biochemical.
Excerpt: as §1

The target in series [8] is MELK (Homo sapiens, UniProt Q14680). In words: Kinase selectivity profiling. In kind it is biochemical. The conditions noted are these: 110-kinase panel.
Excerpt: as §1

Series [9] deals with DAPK1 (Homo sapiens, UniProt P53355). Nature of the series: Kinase selectivity profiling. The conditions noted are these: 110-kinase panel. In kind it is biochemical.
Excerpt: as §1

In series [10] the target is MSK1 (Homo sapiens, UniProt O75582). In words: Kinase selectivity profiling. In kind it is biochemical.
Excerpt: as §1

In series [11] the target is CHK1 (Homo sapiens, UniProt O14757). In words: Kinase selectivity profiling. It is filed as biochemical. The conditions noted are these: 110-kinase panel.
Excerpt: as §1

Series [12] concerns the target LKB1 (Homo sapiens, UniProt Q15831). Nature of the series: Kinase selectivity profiling. It is filed as biochemical.
Excerpt: as §1

For series [13], the target named is JNK1 (Homo sapiens, UniProt P45983). In words: Kinase selectivity profiling. In kind it is biochemical.
Excerpt: as §1

For series [14], the target named is PAK5 (Homo sapiens, UniProt Q9P286). In words: Kinase selectivity profiling. The conditions noted are these: 110-kinase panel. In kind it is biochemical.
Excerpt: as §1

The target in series [15] is JNK3 (Homo sapiens, UniProt P53779). In words: Kinase selectivity profiling. In kind it is biochemical. The conditions noted are these: 110-kinase panel.
Excerpt: as §1

The target of series [16] is p38g MAPK (Homo sapiens, UniProt P53778). Nature of the series: Kinase selectivity profiling. It is filed as biochemical. The conditions noted are these: 110-kinase panel.
Excerpt: as §1

The target of series [17] is MNK2 (Homo sapiens, UniProt Q9HBH9). In words: Kinase selectivity profiling. It is filed as biochemical. The conditions noted are these: 110-kinase panel.
Excerpt: as §1

The target in series [18] is DYRK1A (Homo sapiens, UniProt Q13627). In words: Kinase selectivity profiling. It is filed as biochemical.
Excerpt: as §1

The target of series [19] is MINK1 (Homo sapiens, UniProt Q8N4C8). Nature of the series: Kinase selectivity profiling. In kind it is biochemical. The settings on record: 110-kinase panel.
Excerpt: as §1

Series [20] deals with MKK2 (Homo sapiens, UniProt P36507). Nature of the series: Kinase selectivity profiling. In kind it is biochemical. The settings on record: 110-kinase panel.
Excerpt: as §1

Series [21] deals with HIPK2 (Homo sapiens, UniProt Q9H2X6). In words: Kinase selectivity profiling. It is filed as biochemical.
Excerpt: as §1

Series [22] has as its target PAK6 (Homo sapiens, UniProt Q9NQU5). In words: Kinase selectivity profiling. It is filed as biochemical. The settings on record: 110-kinase panel.
Excerpt: as §1

Series [23] has as its target Aurora A (Homo sapiens, UniProt O14965). Nature of the series: Kinase selectivity profiling. In kind it is biochemical. The conditions noted are these: 110-kinase panel.
Series [24] is described as follows: In vivo mouse PK. The settings on record: plasma, mouse (female Balb/C), 5 mg kg^–1. As to the method:
(§2) Mice (female Balb/C) were dosed po or iv with 28c (5 mg kg^–1) in 10% DMSO and 5% Tween 20 in saline. After administration, the mice were sacrificed at 5, 15, and 30 min and 1, 2, 4, 6, and 24 h. Blood was removed by cardiac puncture and centrifuged to obtain plasma samples. The plasma samples (100 μL) were added to the analytical internal standard (IS; olomoucine), followed by protein precipitation with 300 μL of methanol. Following centrifugation (1200g, 30 min, 4 °C), the resulting supernatants were analyzed for 28c levels by LC/MS using a reversed-phase X-Bridge C18 (Waters, 50 × 2.1 mm) analytical column and positive ion mode ESI MRM on a Waters 2795 liquid chromatography system coupled to a Quattro Ultima triple-quadrupole mass spectrometer (Waters).
as §2, with “40f” for “28c”, “The plasma samples (100 μL) were added to the analytical internal standard (IS; olomoucine), followed by protein precipitation with 300 μL of methanol.” left out, “Polar RP (Phenomenex,” for “X-Bridge C18 (Waters,”, “2” for “2.1”

For series [25], the target named is Aurora B (Homo sapiens, UniProt Q96GD4). Nature of the series: Cellular inhibition of histone H3 phosphorylation at S10 (Aurora-B biomarker) in HCT116 cells. It is filed as cell-based.
In series [26] the target is T1, Aurora-A wild type (Homo sapiens, UniProt O14965).
T1 construct: expressed in transfected cells; host or cells: Hela cervical cancer cells; HCT116 human colon carcinoma cells
In words: Cellular inhibition of Aurora-A autophosphorylation at T288 in HCT116 cells. The settings on record: 1.5 μM. In kind it is cell-based. The method, then: Determination of cellular inhibition of Aurora-A (at T288) and histone H3 (at S10) has been described previously.[19] Briefly, cells were transfected with the Myc-tagged Aurora-A wild type or mutants and treated with different concentrations of the inhibitors for 2 h followed by lysis in LDS sample buffer. The samples were sonicated and boiled, and the proteins were separated by LDS–PAGE and transferred to nitrocellulose membranes. The upper and lower parts of the membranes were probed with anti-P-T288 (Aurora-A autophosphorylation/activation) and anti-P-histone H3 (Aurora-B substrate phosphorylation) antibodies, respectively. The blots were quantified and IC50 values determined using Graphpad Prism. Mammalian cell expression constructs encoding Aurora-A T217E, L215R, and R220K mutants with N-terminal Myc tags were produced using Quikchange mutagenesis (Stratagene).

Series [27] has as its system AMPK (hum). In words: Kinase selectivity profiling. It is filed as biochemical, human. The settings on record: 1 µM; 50-kinase panel (MRC-PPU Express Screen).
Excerpt: as §1

[28] abbreviates: 50-kinase panel (MRC-PPU Express Screen).

Sequence of Aurora B (Q96GD4 whole entry): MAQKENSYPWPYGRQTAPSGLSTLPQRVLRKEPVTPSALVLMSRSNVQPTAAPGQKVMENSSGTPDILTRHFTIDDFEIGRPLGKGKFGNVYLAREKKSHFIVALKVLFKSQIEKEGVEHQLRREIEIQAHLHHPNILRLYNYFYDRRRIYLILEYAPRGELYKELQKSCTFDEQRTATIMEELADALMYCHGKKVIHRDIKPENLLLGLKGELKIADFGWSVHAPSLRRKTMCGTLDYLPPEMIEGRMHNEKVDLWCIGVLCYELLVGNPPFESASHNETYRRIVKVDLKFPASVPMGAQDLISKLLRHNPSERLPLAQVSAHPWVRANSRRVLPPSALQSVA
Sequence of Aurora B (Q9NQS7 whole entry partner): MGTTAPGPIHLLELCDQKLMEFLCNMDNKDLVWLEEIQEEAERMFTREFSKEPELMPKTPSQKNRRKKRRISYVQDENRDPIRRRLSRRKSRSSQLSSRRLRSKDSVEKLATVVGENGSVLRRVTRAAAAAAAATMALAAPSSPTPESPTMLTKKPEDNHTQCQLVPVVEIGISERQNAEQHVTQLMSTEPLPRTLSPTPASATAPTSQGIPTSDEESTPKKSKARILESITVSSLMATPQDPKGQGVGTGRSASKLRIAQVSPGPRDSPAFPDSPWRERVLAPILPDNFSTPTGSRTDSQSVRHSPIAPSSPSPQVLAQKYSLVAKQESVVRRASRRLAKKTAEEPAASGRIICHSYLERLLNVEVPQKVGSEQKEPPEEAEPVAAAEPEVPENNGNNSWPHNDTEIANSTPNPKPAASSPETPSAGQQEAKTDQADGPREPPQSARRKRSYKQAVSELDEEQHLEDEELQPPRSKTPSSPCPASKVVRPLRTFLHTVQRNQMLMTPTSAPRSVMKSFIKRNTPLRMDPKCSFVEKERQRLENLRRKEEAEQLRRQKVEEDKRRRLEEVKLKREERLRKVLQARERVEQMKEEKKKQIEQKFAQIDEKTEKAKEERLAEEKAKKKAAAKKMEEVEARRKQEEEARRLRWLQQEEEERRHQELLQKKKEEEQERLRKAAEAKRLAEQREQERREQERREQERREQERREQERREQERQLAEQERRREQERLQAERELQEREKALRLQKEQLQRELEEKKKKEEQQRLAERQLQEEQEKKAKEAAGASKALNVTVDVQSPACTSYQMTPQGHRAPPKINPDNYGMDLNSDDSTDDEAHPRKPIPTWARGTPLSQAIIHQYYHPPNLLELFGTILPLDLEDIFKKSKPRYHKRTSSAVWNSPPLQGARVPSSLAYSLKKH
Sequence of Aurora B (O15392 whole entry partner): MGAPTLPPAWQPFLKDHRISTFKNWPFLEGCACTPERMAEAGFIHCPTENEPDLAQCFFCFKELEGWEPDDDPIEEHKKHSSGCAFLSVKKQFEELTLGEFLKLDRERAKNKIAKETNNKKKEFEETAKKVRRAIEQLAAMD
Sequence of Aurora B (Q53HL2 whole entry partner): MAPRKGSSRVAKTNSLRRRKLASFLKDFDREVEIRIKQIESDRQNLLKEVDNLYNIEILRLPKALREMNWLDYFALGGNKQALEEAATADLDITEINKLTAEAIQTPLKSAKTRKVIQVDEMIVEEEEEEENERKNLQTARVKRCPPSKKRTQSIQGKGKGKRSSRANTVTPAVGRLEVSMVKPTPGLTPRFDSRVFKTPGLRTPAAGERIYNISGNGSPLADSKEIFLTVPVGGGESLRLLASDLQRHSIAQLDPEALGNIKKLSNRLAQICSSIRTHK
Sequence of JNK1 (P45983 whole entry, species assumed): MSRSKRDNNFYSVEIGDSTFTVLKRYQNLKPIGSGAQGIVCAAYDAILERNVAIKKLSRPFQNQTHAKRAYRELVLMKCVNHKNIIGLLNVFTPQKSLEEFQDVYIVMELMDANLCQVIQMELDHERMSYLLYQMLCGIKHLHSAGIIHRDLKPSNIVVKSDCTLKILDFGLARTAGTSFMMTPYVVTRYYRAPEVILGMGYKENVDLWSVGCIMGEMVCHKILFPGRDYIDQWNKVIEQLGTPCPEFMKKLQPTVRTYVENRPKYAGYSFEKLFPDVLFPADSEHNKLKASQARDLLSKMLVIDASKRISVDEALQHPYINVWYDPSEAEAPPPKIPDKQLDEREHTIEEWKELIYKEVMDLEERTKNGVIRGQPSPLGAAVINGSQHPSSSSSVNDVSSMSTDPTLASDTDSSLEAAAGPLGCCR
Sequence of MKK1 (Q02750 whole entry, species assumed): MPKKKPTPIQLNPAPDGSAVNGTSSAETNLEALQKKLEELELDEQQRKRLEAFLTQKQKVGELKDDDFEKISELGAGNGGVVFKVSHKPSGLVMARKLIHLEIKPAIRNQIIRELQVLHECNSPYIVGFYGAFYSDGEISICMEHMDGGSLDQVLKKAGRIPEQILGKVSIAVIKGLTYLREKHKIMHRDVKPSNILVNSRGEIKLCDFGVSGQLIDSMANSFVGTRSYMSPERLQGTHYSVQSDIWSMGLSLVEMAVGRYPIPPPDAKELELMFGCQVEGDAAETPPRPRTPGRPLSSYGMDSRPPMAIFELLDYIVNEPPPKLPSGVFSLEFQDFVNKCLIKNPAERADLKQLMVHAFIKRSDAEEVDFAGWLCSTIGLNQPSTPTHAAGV
Sequence of HIPK2 (Q9H2X6 whole entry): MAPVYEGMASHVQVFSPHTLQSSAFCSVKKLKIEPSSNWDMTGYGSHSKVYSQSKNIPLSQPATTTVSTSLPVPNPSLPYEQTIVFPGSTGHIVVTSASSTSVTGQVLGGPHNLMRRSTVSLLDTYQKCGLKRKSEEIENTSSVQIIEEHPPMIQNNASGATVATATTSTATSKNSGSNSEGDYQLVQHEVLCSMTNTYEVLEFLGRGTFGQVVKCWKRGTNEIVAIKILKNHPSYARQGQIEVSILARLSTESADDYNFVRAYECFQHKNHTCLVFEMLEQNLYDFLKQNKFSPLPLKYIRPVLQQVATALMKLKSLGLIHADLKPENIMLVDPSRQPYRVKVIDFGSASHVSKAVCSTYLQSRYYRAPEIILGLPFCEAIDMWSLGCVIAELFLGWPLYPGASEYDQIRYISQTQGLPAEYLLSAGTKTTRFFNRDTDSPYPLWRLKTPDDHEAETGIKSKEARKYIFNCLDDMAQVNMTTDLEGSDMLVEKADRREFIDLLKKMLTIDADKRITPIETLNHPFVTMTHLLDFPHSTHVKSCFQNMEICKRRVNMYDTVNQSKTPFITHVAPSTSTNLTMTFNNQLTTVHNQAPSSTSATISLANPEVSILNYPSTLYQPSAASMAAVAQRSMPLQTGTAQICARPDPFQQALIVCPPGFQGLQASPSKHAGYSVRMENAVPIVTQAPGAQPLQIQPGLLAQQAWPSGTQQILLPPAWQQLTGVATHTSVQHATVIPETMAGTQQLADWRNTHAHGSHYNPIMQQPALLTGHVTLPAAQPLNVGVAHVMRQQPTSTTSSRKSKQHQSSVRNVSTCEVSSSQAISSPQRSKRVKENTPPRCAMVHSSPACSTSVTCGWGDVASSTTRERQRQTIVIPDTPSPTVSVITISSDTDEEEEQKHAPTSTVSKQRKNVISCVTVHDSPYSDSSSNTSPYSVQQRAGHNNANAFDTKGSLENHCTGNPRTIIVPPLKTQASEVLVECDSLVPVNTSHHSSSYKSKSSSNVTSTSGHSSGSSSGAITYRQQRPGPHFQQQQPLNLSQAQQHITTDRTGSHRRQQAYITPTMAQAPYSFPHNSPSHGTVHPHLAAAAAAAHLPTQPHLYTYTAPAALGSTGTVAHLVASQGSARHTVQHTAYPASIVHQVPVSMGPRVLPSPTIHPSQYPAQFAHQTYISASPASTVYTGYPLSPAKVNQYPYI
Sequence of LKB1 (Q15831 whole entry): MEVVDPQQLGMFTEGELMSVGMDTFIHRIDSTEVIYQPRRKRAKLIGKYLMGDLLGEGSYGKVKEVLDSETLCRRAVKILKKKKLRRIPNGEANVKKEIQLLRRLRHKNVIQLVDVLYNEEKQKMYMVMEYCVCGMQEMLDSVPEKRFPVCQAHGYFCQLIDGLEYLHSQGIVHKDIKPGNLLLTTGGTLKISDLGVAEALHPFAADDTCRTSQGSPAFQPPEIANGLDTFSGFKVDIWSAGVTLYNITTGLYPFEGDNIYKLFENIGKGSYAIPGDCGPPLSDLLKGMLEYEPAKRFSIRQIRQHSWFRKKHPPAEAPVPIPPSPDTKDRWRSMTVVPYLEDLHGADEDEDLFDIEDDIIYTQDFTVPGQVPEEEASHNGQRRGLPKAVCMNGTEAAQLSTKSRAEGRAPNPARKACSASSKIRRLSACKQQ
Sequence of LKB1 (Q7RTN6 whole entry partner): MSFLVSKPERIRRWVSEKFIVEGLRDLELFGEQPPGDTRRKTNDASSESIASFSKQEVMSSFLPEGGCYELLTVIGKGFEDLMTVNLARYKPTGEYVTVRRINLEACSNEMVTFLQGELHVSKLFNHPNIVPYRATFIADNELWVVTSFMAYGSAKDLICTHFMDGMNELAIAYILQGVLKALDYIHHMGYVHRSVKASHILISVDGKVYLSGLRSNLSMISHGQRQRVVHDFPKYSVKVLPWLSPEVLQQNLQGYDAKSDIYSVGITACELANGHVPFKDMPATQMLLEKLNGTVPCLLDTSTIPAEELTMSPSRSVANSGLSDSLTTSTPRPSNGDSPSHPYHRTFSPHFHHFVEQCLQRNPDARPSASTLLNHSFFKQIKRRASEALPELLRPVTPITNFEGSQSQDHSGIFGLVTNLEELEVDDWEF
Sequence of LKB1 (Q9Y376 whole entry partner): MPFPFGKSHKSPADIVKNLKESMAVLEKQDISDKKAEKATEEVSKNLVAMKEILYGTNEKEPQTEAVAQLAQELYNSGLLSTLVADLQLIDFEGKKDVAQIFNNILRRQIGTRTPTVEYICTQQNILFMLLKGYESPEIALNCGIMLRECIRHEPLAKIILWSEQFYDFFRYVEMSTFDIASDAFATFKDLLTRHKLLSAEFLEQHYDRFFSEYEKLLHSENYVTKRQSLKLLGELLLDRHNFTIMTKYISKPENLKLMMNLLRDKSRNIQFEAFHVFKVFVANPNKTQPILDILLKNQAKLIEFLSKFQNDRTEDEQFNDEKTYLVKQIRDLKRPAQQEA

Take `Cc1nn(C)cc1-c1nc2c(Oc3ccc(C(=O)Nc4ccccc4)cc3)c(Cl)cnc2[nH]1` [compound 28c, 4-((6-Chloro-2-(1,3-dimethyl-1H-pyrazol-4-yl)-3H-imidazo[4,5-b]pyridin-7-yl)oxy)-N-phenylbenzamide]: the remaining activity (usually the signal under treatment as a percentage of the control signal) at 1 µM in [1] was determined as 31%; in [2], 96%; in [3], 102%; in [4], 127%; in series [5], 91%; in series [6] (110-kinase panel), 77%. The remaining activity at 1 µM in [7] amounted to 126%; in [8], 79%; in series [9], 95%; in series [10] (110-kinase panel), 89%; in series [11], 94%; in series [12] (110-kinase panel), 97%. Moreover, the remaining activity at 1 µM in series [13] (110-kinase panel) worked out at 92%; in series [14] it was 56%; in series [15], 87%; in [16], 96%; in series [17], 109%; in [18] (110-kinase panel), 105%. In addition, the remaining activity at 1 µM in [19] was 75%; in [20], 94%; in [21] (110-kinase panel), 83%; in [22] it was 101%; in [23], 4%. Also, the clearance (as a rule, the volume of plasma or blood freed of the substance per unit of time) in [24] is 0.883 mL/min and 44.2 mL/min/kg. Further, the Vd in series [24] (read-out: volume of distribution) worked out at 0.036 L.

Regarding `Cc1nn(C)cc1-c1nc2c(Oc3ccc(C(=O)NC4CCC4)cc3)c(Cl)cnc2[nH]1` [compound 40f, 4-((6-Chloro-2-(1,3-dimethyl-1H-pyrazol-4-yl)-3H-imidazo[4,5-b]pyridin-7-yl)oxy)-N-cyclobutylbenzamide], the “histone H3 phosphorylation” value in series [25] (1.5 μM) is listed as “increase in histone H3 phosphorylation”. For the same molecule, the “inhibition of histone H3 phosphorylation at S10” value in series [25] (25 μM) is “partial inhibition”; in series [25] (50 μM), “complete inhibition”. The “phosphorylation of Aurora-A” value in series [26] is on record as “completely inhibited”. In addition, the remaining activity at 1 µM was 94% in series [6] (setting [28]); 94% in series [10] (setting [28]); 108% in [12] (setting [28]); 100% in series [13] (setting [28]); 104% in [18] (setting [28]); 98% in series [21] (setting [28]). In series [27], the “% activity remaining, AMPK (hum)” value is reported as 85%.

Source of the values: article PMC3848336, “Aurora Isoform Selectivity: Design and Synthesis of Imidazo[4,5-b]pyridine Derivatives as Highly Selective Inhibitors of Aurora-A Kinase in Cells” (Journal of Medicinal Chemistry, 2013).
